Assay [1] relates to HUH7 cells. Put plainly: Inhibition of growth of liver cancer cell line HUH7 (CellTiter-Glo). Format: cell-based. The settings on record: Homo sapiens, Huh-7, CellTiter-Glo luminescence. On the procedure: (§1) The inhibition activity for liver cancer cell lines was measured for 4-((2-acrylamido-6-methylphenyl)amino)-N-(3,5-dimethoxyphenyl)thieno[3,2-d]pyrimidine-7-carboxamide (Compound 1) and 4-((2-acrylamido-6-methylphenyl)amino)-N-(2-methyl-5-(3-(trifluoromethyl)benzamido)phenyl)thieno[3,2-d]pyrimidine-7-carboxamide (Compound 2) synthesized in the present invention.
(§2) Hep3B or HUH7 cells were seeded onto a 96-well plate with 5,000 cells per well and then cultured overnight in F-12K Nutrient Mixture (Life Technologies Corporation) containing 10% FBS at 37° C. in the presence of 5% CO2. The test compound dissolved in dimethyl sulfoxide was diluted to a final concentration of 1-50 μM and then added to the 96-well plate. After culturing at 37° C. in the presence of 5% CO2 and adding a cell count reagent (CellTiter-Glo® Luminescent Cell Viability Assay), luminescence intensity was measured using a luminescence measuring apparatus (Envision).

Assay [2] concerns Hep3B cells. Nature of the assay: Inhibition of growth of liver cancer cell line Hep3B (CellTiter-Glo). The settings on record: Homo sapiens, CellTiter-Glo luminescence. Type of assay: cell-based. On the procedure: as §1, §2
In general terms: ATP-based viability assays read luminescence as a measure of living cells.

The structures appear in SMILES notation.

As a reminder, the GI50 is the concentration giving 50% growth inhibition. For `C=CC(=O)Nc1cccc(C)c1Nc1ncnc2c(C(=O)Nc3cc(OC)cc(OC)c3)csc12` [Compound 1, 4-((2-acrylamido-6-methylphenyl)amino)-N-(3,5-dimethoxyphenyl)thieno[3,2-d]pyrimidine-7-carboxamide], the 50% growth inhibitory concentration (GI50) in assay [1] and in assay [2] was < 10 µM in each case.
Regarding `C=CC(=O)Nc1cccc(C)c1Nc1ncnc2c(C(=O)Nc3cc(NC(=O)c4cccc(C(F)(F)F)c4)ccc3C)csc12` [Compound 2, 4-((2-acrylamido-6-methylphenyl)amino)-N-(2-methyl-5-(3-(trifluoromethyl)benzamido)phenyl)thieno[3,2-d]pyrimidine-7-carboxamide], the GI50 in assay [1] and in assay [2] was < 1 µM each time.
